Assays:
[1] = system: B16F10 cells; experiment: Measurement of extracellular and intracellular melanin levels; assay type: cell-based, murine; conditions: α-MSH plus IBMX stimulated B16F10 cells, 72 h
Method: To investigate the effects of derivative 8 on extracellular and intracellular melanin levels in B16F10 cells, the cells were treated with various concentrations (5, 10, and 20 µM) of derivative 8 for 1 h, in addition to co-treatment with α-MSH (0.5 µM) and 3-isobutyl-1-methylxanthine (IBMX; 200 µM) to enhance melanin biosynthesis in B16F10 cells. After 72 h of incubation, the effects of 8 on extracellular and intracellular melanin levels were determined by measuring the melanin absorbance in the culture media and cell lysates, respectively, at 405 nm using a microplate reader.
The effect of 8 on melanin production was measured using a standard melanin content assay, with minor modifications. Briefly, B16F10 cells were seeded at a density of 1 × 10^5 cells per well and allowed to adhere to the well bottoms for 24 h under the conditions used for cell cultures. […] After incubation for 72 h at 37 °C in a 5% CO2 atmosphere, melanin levels were determined. To measure the extracellular melanin levels, the absorbance of each well of the culture medium was measured at 405 nm. […] Cultured cells were washed twice with PBS, and the pellets obtained were dissolved using 1 N NaOH solution (200 µL, 10% DMSO) at 60 °C for 1 h. Cell lysates were transferred to the wells of a 96-well plate, and the optical density of melanin dissolved in each well was measured at 405 nm in aqueous DMSO solution using a microplate reader (VersaMax; Molecular Devices).

[2] = system: microphthalmia-associated transcription factor (MITF); experiment: Western blotting of MITF protein expression; assay type: cell-based, murine
Method: We investigated whether, in addition to the direct inhibition of tyrosinase, another inhibitory mechanism of melanogenesis by derivative 8 may be related to the expression of proteins involved in melanogenesis. For the Western blotting experiment, B16F10 cells were treated with α-MSH (1 µM) plus IBMX (200 µM), leading to a 1.7- and 4.9-fold increase in expression levels of melanogenesis-associated proteins tyrosinase and MITF, compared to those in the untreated control (100%) (Figure 13).
B16F10 cells were seeded in a 60 mm dish at a density of 5 × 10^5 cells/mL for 24 h, washed with cold PBS, and harvested. Cytosolic and nuclear fractions of cell lysates were extracted using lysis buffer, as described previously. Protein concentrations in the cell lysates were estimated using the BCA protein assay (Pierce, Rockford, IL, USA). […] The membranes were washed and protein bands detected using the SuperSignal West Pico Chemiluminescence assay kit (Advansta, San Jose, CA, USA) and the Davinch–Chem program (Davinch-K, Seoul, Republic of Korea). Immunoblotting data were quantified using CS Analyzer 3.2 (Densitograph) image analysis software (http://www.attokorea.co.kr, accessed on 21 November 2022).

O=C1N=C(NCc2ccccc2)S/C1=C\c1ccc(O)cc1O [Compound 8, (Z)-2-(benzylamino)-5-(2,4-dihydroxybenzylidene)thiazol-4(5H)-one]
extracellular melanin levels compared to untreated control ([1]; 5 µM): 1.22 fold | intracellular melanin levels (in words) ([1]; 5 µM): more potent inhibitory activity on melanin production than kojic acid at 20 µM | extracellular melanin levels compared to untreated control ([1]; 10 µM): 1.03 fold | extracellular melanin levels compared to untreated control ([1]; 20 µM): 1.00 fold | intracellular melanin levels (in words) ([1]; 20 µM): lower than those in the untreated control | relative expression level of MITF protein ([2]; 10 µM, α-MSH plus IBMX treated B16F10 cells): lowered the protein expression to the same or lower control levels | relative expression level of MITF protein ([2]; 5, 10 and 20 µM, α-MSH (1 µM) plus IBMX (200 µM) treated B16F10 cells): significantly reduced the relative expression levels of tyrosinase and MITF in a dose-dependent manner

— paper PMC9865752, “Design and Synthesis of (Z)-2-(Benzylamino)-5-benzylidenethiazol-4(5H)-one Derivatives as Tyrosinase Inhibitors and Their Anti-Melanogenic and Antioxidant Effects” (Molecules, 2023)
